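In this assay, cells in 96-well plates receive the compound at five concentrations for 48 hours. Endpoints are linearly interpolated between the surrounding concentrations. GI50: concentration for 50% inhibition of growth.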 Calls of active or inactive are those of the source. Rule as the data show it: active = GI50 up to about 1.1 µM and inactive = higher.
Legend:
Test in all cases: NCI anticancer screen, dose series, 48 h
MDA-MB-435 = test system: MDA-MB-435
HOP-92 = test system: HOP-92
SK-MEL-2 = test system: SK-MEL-2
SK-MEL-28 = test system: SK-MEL-28
NCI-H522 = test system: NCI-H522
U-251 = test system: U-251
CCRF-CEM = test system: CCRF-CEM
A549 = test system: A549
T47D = test system: T47D
MCF7 = test system: MCF7
SW-620 = test system: SW-620
RPMI-8226 = test system: RPMI-8226
IGROV-1 = test system: IGROV-1
BT-549 = test system: BT-549
OVCAR-8 = test system: OVCAR-8
HCT-15 = test system: HCT-15
M14 = test system: M14
HT-29 = test system: HT-29
Malme-3M = test system: Malme-3M
NCI/ADR-RES = test system: NCI/ADR-RES

SMILES | GI50 (MDA-MB-435) | GI50 (HOP-92) | GI50 (SK-MEL-2) | GI50 (SK-MEL-28) | GI50 (NCI-H522) | GI50 (U-251) | GI50 (CCRF-CEM) | GI50 (A549) | GI50 (T47D) | GI50 (MCF7) | GI50 (SW-620) | GI50 (RPMI-8226) | GI50 (IGROV-1) | GI50 (BT-549) | GI50 (OVCAR-8) | GI50 (HCT-15) | GI50 (M14) | GI50 (HT-29) | GI50 (Malme-3M) | GI50 (NCI/ADR-RES)
CCOc1ccc(/C=C2\N=C(c3ccc([N+](=O)[O-])cc3)OC2=O)cc1 | > 100 µM (inactive) | > 100 µM (inactive) | > 100 µM (inactive) | > 100 µM (inactive) | > 100 µM (inactive) | > 100 µM (inactive) | > 100 µM (inactive) | > 100 µM (inactive) | > 100 µM (inactive) | > 100 µM (inactive) | > 100 µM (inactive) | > 100 µM (inactive) | > 100 µM (inactive) | > 100 µM (inactive) | > 100 µM (inactive) | > 100 µM | > 100 µM (inactive) | > 100 µM (inactive) | > 100 µM (inactive) | 
c1ccc2c(c1)ccc1nc(-c3ccc4c(c3)OCO4)c3c(c12)CCCC3 | 27.5 µM (inactive) |  | 23.2 µM (inactive) | 30.2 µM (inactive) |  | 7.6 µM (inactive) | 25.9 µM (inactive) | 20.6 µM (inactive) | 11.3 µM (inactive) | 24.5 µM (inactive) | 29.2 µM (inactive) | 15.5 µM (inactive) |  | 17 µM (inactive) | 20.2 µM (inactive) | 6.07 µM | 28.7 µM (inactive) | 9.48 µM (inactive) | 20.8 µM (inactive) | 17.7 µM (inactive)
CCOP(=O)(OCC)C(C)(C)OC(=O)NC(F)(F)F | > 100 µM (inactive) |  | > 100 µM (inactive) | > 100 µM (inactive) |  | > 100 µM (inactive) | > 100 µM (inactive) | > 100 µM (inactive) | > 100 µM (inactive) | > 100 µM (inactive) | > 100 µM (inactive) | > 100 µM (inactive) | > 100 µM (inactive) | > 100 µM (inactive) | > 100 µM (inactive) | > 100 µM | > 100 µM (inactive) | > 100 µM (inactive) | > 100 µM (inactive) | > 100 µM (inactive)
CCOC(=O)c1nc2ccc(C(F)(F)F)cc2nc1NCc1ccc(F)cc1 | 31.9 µM (inactive) | 4.83 µM (inactive) | 59.4 µM (inactive) | 44 µM (inactive) | 18.1 µM (inactive) | 35.7 µM (inactive) | 24.9 µM (inactive) | 42.8 µM (inactive) | 17.1 µM (inactive) | 30.9 µM (inactive) | 34.1 µM (inactive) | 23.5 µM (inactive) | 26.5 µM (inactive) |  | 30.9 µM (inactive) | 29.4 µM | 48.6 µM (inactive) | 35.4 µM (inactive) | 35.5 µM (inactive) | 24 µM (inactive)
COc1ccc(/C=C2\CCC(C)C3=C(c4ccc(OC)c(OC)c4)C(C#N)=C(N)OC32)cc1OC (centres undefined) | 2.7 µM (inactive) |  | 1.97 µM (inactive) | 3.86 µM (inactive) |  | 3.58 µM (inactive) | 2.28 µM (inactive) |  | 2.17 µM (inactive) | 3.26 µM (inactive) | 4.29 µM (inactive) | 2.04 µM (inactive) | 2.39 µM (inactive) | 3.51 µM (inactive) | 4.01 µM (inactive) | 3.33 µM | 3.17 µM (inactive) | 2.75 µM (inactive) | 2.48 µM (inactive) | 2.65 µM (inactive)
c1ccc(NNC2=NCCN2)cc1 | > 100 µM (inactive) |  | > 100 µM (inactive) | > 100 µM (inactive) | > 100 µM (inactive) | > 100 µM (inactive) | > 100 µM (inactive) | > 100 µM (inactive) | > 100 µM (inactive) | > 100 µM (inactive) | > 100 µM (inactive) | > 100 µM (inactive) | > 100 µM (inactive) | > 100 µM (inactive) | > 100 µM (inactive) | > 100 µM | > 100 µM (inactive) | > 100 µM (inactive) |  | > 100 µM (inactive)
CCOC(=O)C1(Cc2ccc3c(c2)CCC3)Cc2cc3c(cc2C1=O)CCC3 (centres undefined) | 36.3 µM (inactive) |  | > 100 µM (inactive) | > 100 µM (inactive) | 47.8 µM (inactive) | > 78 µM (inactive) | 11.9 µM (inactive) | 44 µM (inactive) | 14.2 µM (inactive) | 33.7 µM (inactive) | > 85.1 µM (inactive) | 19.2 µM (inactive) | > 100 µM (inactive) | 76.7 µM (inactive) | > 91.2 µM (inactive) | 58.6 µM | > 57.4 µM (inactive) | 31.6 µM (inactive) | > 61.2 µM (inactive) | 36 µM (inactive)
CC1(C)C2C=CC1(C)C1(CC2)OCCO1 (centres undefined) | > 100 µM (inactive) |  | > 100 µM (inactive) | > 100 µM (inactive) |  | > 100 µM (inactive) | > 100 µM (inactive) |  | > 100 µM (inactive) | > 100 µM (inactive) | > 100 µM (inactive) | > 100 µM (inactive) | > 100 µM (inactive) |  | > 100 µM (inactive) | > 100 µM | > 100 µM (inactive) | > 100 µM (inactive) | > 100 µM (inactive) | > 100 µM (inactive)
CCOC(=O)C(=CNc1ccc(F)c(F)c1)C(=O)OCC | > 100 µM (inactive) | > 100 µM (inactive) | > 100 µM (inactive) | > 100 µM (inactive) | 81.7 µM (inactive) | > 100 µM (inactive) | 54.5 µM (inactive) | > 100 µM (inactive) | 69.7 µM (inactive) | > 100 µM (inactive) | > 100 µM (inactive) | 64.1 µM (inactive) | > 100 µM (inactive) |  | > 100 µM (inactive) | 88.3 µM | > 100 µM (inactive) | 94 µM (inactive) | > 100 µM (inactive) | > 100 µM (inactive)
NNC(=O)C1(NC(=O)c2ccccc2)C(c2ccccc2)C(c2ccccc2)=NN1c1ccccc1 (centres undefined) | 29.2 µM (inactive) |  | 41.5 µM (inactive) | 90.4 µM (inactive) | 55.3 µM (inactive) | 62.1 µM (inactive) | 8.99 µM (inactive) | 43.5 µM (inactive) | 23.1 µM (inactive) | 37.9 µM (inactive) | 46.6 µM (inactive) | 21.1 µM (inactive) | 34.9 µM (inactive) | 71.8 µM (inactive) | 55.5 µM (inactive) | 18.5 µM | 22.8 µM (inactive) |  | > 100 µM (inactive) | 32.1 µM (inactive)
CCOC(=O)Nn1c(C)nnc1CC#N |  | 58.9 µM (inactive) | > 100 µM (inactive) | > 100 µM (inactive) | > 100 µM (inactive) | > 100 µM (inactive) |  | > 100 µM (inactive) | > 100 µM (inactive) | > 100 µM (inactive) | > 100 µM (inactive) | > 100 µM (inactive) | > 100 µM (inactive) | > 100 µM (inactive) | > 100 µM (inactive) | > 100 µM | > 100 µM (inactive) | > 100 µM (inactive) | > 100 µM (inactive) | > 100 µM (inactive)
C/C(=C(/C)c1ccc(O)cc1)c1ccc(O)cc1 [DIMETHYLSTILBESTROL] | 37.9 µM (inactive) | 27.4 µM (inactive) | 10 µM (inactive) |  | > 100 µM (inactive) | 67.3 µM (inactive) | 42.3 µM (inactive) | 71.3 µM (inactive) |  | 39.5 µM (inactive) | > 100 µM (inactive) | 34.9 µM (inactive) | > 100 µM (inactive) | 12.6 µM (inactive) | 36.1 µM (inactive) | 61.1 µM | 45.3 µM (inactive) | 48.8 µM (inactive) | 60.8 µM (inactive) | 45.5 µM (inactive)
CC1(C)NC(=O)N(CCCCCCN2C(=O)NC(C)(C)C2=O)C1=O |  | > 100 µM (inactive) | > 100 µM (inactive) | > 100 µM (inactive) | > 100 µM (inactive) | > 100 µM (inactive) | > 100 µM (inactive) | > 100 µM (inactive) |  |  | > 100 µM (inactive) | > 100 µM (inactive) | > 100 µM (inactive) |  | > 100 µM (inactive) | > 100 µM | > 100 µM (inactive) | > 100 µM (inactive) | > 100 µM (inactive) | 
CCCCCCCCCC1CC(=O)Oc2cccc(O)c21 (centres undefined) |  | 34 µM (inactive) | 20.6 µM (inactive) | 29.6 µM (inactive) | 20.9 µM (inactive) | 2.72 µM (inactive) | 27.4 µM (inactive) | 11.5 µM (inactive) |  |  | 29.2 µM (inactive) | 28.4 µM (inactive) | 20.9 µM (inactive) |  | 31.8 µM (inactive) | 23.4 µM | 22.7 µM (inactive) | 24.1 µM (inactive) | 18.7 µM (inactive) | 
Cc1n[nH]c(=O)n1/N=C/c1ccc(Cl)cc1 | > 100 µM (inactive) | 32.9 µM (inactive) |  | > 100 µM (inactive) | 21.7 µM (inactive) |  | 31.1 µM (inactive) | 61.2 µM (inactive) | 35.6 µM (inactive) |  | 68.7 µM (inactive) | > 100 µM (inactive) |  | 23.1 µM (inactive) | 83.6 µM (inactive) | > 100 µM | > 100 µM (inactive) |  |  | 49.3 µM (inactive)
CCOP(=O)(OCC)C(Nc1ccc(F)cc1)c1cccc([N+](=O)[O-])c1 (centres undefined) | > 100 µM (inactive) | 37.9 µM (inactive) | 49.7 µM (inactive) | > 100 µM (inactive) | 63.1 µM (inactive) | > 100 µM (inactive) | 62.4 µM (inactive) | 58.7 µM (inactive) |  | > 100 µM (inactive) | > 100 µM (inactive) | 76.9 µM (inactive) | 78.9 µM (inactive) | 89.3 µM (inactive) | 97.9 µM (inactive) | 83.8 µM | 79.1 µM (inactive) | 74.6 µM (inactive) | 83.8 µM (inactive) | 47.1 µM (inactive)
